For orientation: IC50 means the point on the concentration scale where inhibition reaches its midpoint. As usually defined, the inhibition is the percentage by which the read-out fell short of the control. Read a high inhibition as strong suppression.

The results in this text go back to patent US20230310435A1, “HOST DEFENSE PROTEIN (HDP) MIMETICS FOR PROPHYLAXIS AND/OR TREATMENT OF INFLAMMATORY DISEASES OF THE GASTROINTESTINAL TRACT” (priority 2015, published 2023).

One experiment concerns DSS-induced colitis. In words: Dextran sulfate sodium (DSS)-induced acute colitis model. In kind it is in vivo, male C57BL/6 mice. The settings on record: end of study; brilacidin 400 mg/kg or 5-ASA 50 mg/kg per rectum Days 7-11. How it is done:
The efficacy of brilacidin administered was investigated in a murine model of chemically-induced acute colitis using dextran sulfate sodium (DSS). This was a different in vivo model of IBD to the testing performed in Examples 16 and 17 (where mucosal injury was induced by using acetic acid). DSS-induced colitis in mice is characterized by weight loss, bloody diarrhea, intestinal ulcerations and infiltrations with granulocytes. In mice, DSS was administered from Day 0 to Day 11, as a 5% (w/v) DSS solution in the drinking water of male C57BL/6 mice (Kim J J, et al., J. Vis. Exp., 2012, 60, 3678), to induce severe murine colitis. On Days 7-11, test compound brilacidin (400 mg/kg) or positive control 5-ASA (50 mg/kg) or water (negative control) were administered as a solution, per rectum. On Days 6, 10 and 11, rectal bleeding was assessed using a Hemoccult® kit and stool consistency was visually assessed; severity of symptoms were scored on a scale of 0 (normal) to 4 (severe). Level of pro-inflammatory cytokines interleukin (IL)-6 and IL-1β in distal colon tissue were determined from excised colons using conventional ELISA methods.

Experiment [1] relates to acetic acid-induced colitis. It is filed as in vivo. As to the method: Method for FIG. 14. […] Balb/c mice were fasted for 24 hours. Colitis was induced by injecting 200 μL of 4% acetic acid into the rectum. […] Another group of animals were treated with 5-ASA (5-aminosalicylic acid or mesalamine), and another received no treatment. Seven days after the first dose, five cm of intestine were cleaned in cold saline then weighed.
Method for FIG. 15. […] Balb/c mice were fasted for 24 hours. Colitis was induced by injecting 200 μL of 4% acetic acid into the rectum. […] Another group of animals were treated with 5-ASA (5-aminosalicylic acid or mesalamine), and another received no treatment. Seven days after the first dose the colon was examined visually for mucosal injury and scored according to the Table below.
Briefly, colitis was induced by injecting 4% acetic acid into the rectum.

Experiment [2] concerns LPS-induced MCP-1 release, NR8383 cells. In words: LPS-induced MCP-1 release in NR8383 rat macrophages (ELISA). It is filed as cell-based. As to the method:
Method for FIG. 7. […] After 8 hours, supernatants were collected for MCP-1 measurement by ELISA. MCP-1 was measured using an immunoassay kit according to manufacturer's instructions (Thermo Scientific, Rockford. IL).
Method for FIG. 8. MCP-1 assays were performed using PMX-60056. Rat macrophages (NR8383) were pretreated with […] with concentrations shown for 45 minutes, followed by 1 μg/ml LPS treatment from E. coli (Sigma, St. Louis, MO) for 8 hours. After 8 hours, supernatants were collected for MCP-1 measurement by ELISA. MCP-1 was measured using an immunoassay kit according to manufacturer's instructions (Thermo Scientific, Rockford, IL).
The MCP-1 inhibition assay was performed according to the Method described for FIG. 7.
The MCP-1 inhibition assay was performed according to the Method described for FIG. 8.
(§1) PDE4 and PDE3 inhibition results in subsequent down-regulation of pro-inflammatory cytokines/chemokines and its regulators, and experiments were conducted to confirm such down-regulation by brilacidin in ex vivo cell-based assays. In these assays, cells were exposed to brilacidin 45 minutes before an 8-hour lipopolysaccharide (LPS) stimulation in the presence of brilacidin; cytokine/enzyme concentrations were determined by ELISA using a standard immunoassay kit.
In general terms: An ELISA detects its analyte on a solid surface through an enzyme-linked reagent.

A further experiment concerns the target human PDE4B2 (Homo sapiens, UniProt Q07343). In words: PDE-Glo phosphodiesterase assay, PDE4. It is filed as biochemical. The settings on record: 8 ng PDE4B, 1 μM cAMP substrate, 15 min pre-incubation; read-out: IC50, inhibition of PDE4. How it is done: Method for FIG. 1. […] The compounds and PDE4B (BPS Biosciences, San Diego, CA) were mixed and pre-incubated at room temperature for 15 minutes. Substrate was added and the reaction was incubated for 7 minutes at room temperature. Data are presented as luminescence units (RLU).
Method for FIG. 2. Phosphodiesterase inhibition assays of PDE4 were performed, using PMX-60056. The PDE-Glo phosphodiesterase assay (Promega, Madison, WI, USA Catalog No. V1361) was performed using 8 ng of PDE4B (BPS Biosciences, San Diego, CA). […] The compounds and PDE4B were mixed and pre-incubated at room temperature for 15 minutes. Substrate was added and the reaction was incubated for 7 minutes at room temperature. Data are presented as luminescence units (RLU).
Phosphodiesterase type 4 (PDE4) is predominant phosphodiesterase expressed in neutrophils, T cells and macrophages. PDE inhibitors show broad spectrum of anti-inflammatory effects in almost all inflammatory cells. PDE4 inhibitors, block the degradative action of PDE4 on cAMP, thereby increasing intracellular levels of cAMP levels which mediate phosphorylation of protein kinases. […] Data are presented as luminescence units (RLU).
The PDE-Glo phosphodiesterase assay was performed according to the Method described for FIG. 2, using 8 ng of PDE4B, 1 μM cAMP substrate PMX-60056. Data are presented as luminescence units (RLU). […]

In experiment [3] the test system is LPS-induced TNF-α release, NR8383 cells. Briefly: LPS-induced TNF-α production in NR8383 rat macrophages (ELISA). In kind it is cell-based. As to the method: Method for FIG. 5. TNF-alpha assays were performed using PMX-30063. […] TNF-α concentrations in the supernatants were determined by ELISA using an immunoassay kit specific for rat TNF-α (R&D Systems, Minneapolis, MN) according to manufacturer's instructions.
Method for FIG. 6. TNF-alpha assays were performed using PMX-60056. NR8383 rat macrophage cells were pretreated with PMX-60056 for 45 minutes followed by treatment with 1 μg/ml LPS from E. coli (Sigma, St. Louis, MO) for 8 hours. TNF-α concentrations in the supernatants were determined by ELISA using an immunoassay kit specific for rat TNF-α (R&D Systems, Minneapolis, MN) according to manufacturer's instructions.
The TNF-α inhibition assay was performed according to the Method described for FIG. 5. […] TNF-α concentrations in the supernatants were determined by ELISA using an immunoassay kit specific for rat TNF-α (R&D Systems).
The TNF-α inhibition assay was performed according to the Method described for FIG. 6. NR8383 rat macrophage cells (CRL-2192. ATCC) were pretreated with PMX-60056 for 45 minutes followed by treatment with 1 μg/ml LPS for 8 hours. TNF-α concentrations in the supernatants were determined by ELISA using an immunoassay kit specific for rat TNF-α (R&D Systems).
as §1

For the next experiment, the target named is human PDE3A (Homo sapiens, UniProt Q14432). Briefly: PDE-Glo phosphodiesterase assay, PDE3. The following applies: 2.75 ng PDE3A, 1 μM cAMP substrate, 15 min pre-incubation; read-out: IC50, inhibition of PDE3. It is filed as biochemical. As to the method:
Method for FIG. 3. […] The compounds and PDE3A were mixed and pre-incubated at room temperature for 15 minutes. Substrate was added and the reaction was incubated for 7 minutes at room temperature. Data are presented as luminescence units (RLU).
Method for FIG. 4. Phosphodiesterase inhibition assays of PDE3 were performed using PMX-60056. The PDE-Glo phosphodiesterase assay (Promega, Madison, WI, USA Catalog No. V1361) was performed according to manufacturer's instruction using 2.75 ng of PDE3A, 1 μM cAMP substrate and PMX60056. The compounds and PDE3A were mixed and pre-incubated at room temperature for 15 minutes. Substrate was added and the reaction was incubated for 7 minutes at room temperature. Data are presented as luminescence units (RLU).
The compounds and PDE3A were mixed and pre-incubated at room temperature for 15 minutes. Substrate was added and the reaction was incubated. […]
as §1

Chain of human PDE3A (Q14432 whole entry): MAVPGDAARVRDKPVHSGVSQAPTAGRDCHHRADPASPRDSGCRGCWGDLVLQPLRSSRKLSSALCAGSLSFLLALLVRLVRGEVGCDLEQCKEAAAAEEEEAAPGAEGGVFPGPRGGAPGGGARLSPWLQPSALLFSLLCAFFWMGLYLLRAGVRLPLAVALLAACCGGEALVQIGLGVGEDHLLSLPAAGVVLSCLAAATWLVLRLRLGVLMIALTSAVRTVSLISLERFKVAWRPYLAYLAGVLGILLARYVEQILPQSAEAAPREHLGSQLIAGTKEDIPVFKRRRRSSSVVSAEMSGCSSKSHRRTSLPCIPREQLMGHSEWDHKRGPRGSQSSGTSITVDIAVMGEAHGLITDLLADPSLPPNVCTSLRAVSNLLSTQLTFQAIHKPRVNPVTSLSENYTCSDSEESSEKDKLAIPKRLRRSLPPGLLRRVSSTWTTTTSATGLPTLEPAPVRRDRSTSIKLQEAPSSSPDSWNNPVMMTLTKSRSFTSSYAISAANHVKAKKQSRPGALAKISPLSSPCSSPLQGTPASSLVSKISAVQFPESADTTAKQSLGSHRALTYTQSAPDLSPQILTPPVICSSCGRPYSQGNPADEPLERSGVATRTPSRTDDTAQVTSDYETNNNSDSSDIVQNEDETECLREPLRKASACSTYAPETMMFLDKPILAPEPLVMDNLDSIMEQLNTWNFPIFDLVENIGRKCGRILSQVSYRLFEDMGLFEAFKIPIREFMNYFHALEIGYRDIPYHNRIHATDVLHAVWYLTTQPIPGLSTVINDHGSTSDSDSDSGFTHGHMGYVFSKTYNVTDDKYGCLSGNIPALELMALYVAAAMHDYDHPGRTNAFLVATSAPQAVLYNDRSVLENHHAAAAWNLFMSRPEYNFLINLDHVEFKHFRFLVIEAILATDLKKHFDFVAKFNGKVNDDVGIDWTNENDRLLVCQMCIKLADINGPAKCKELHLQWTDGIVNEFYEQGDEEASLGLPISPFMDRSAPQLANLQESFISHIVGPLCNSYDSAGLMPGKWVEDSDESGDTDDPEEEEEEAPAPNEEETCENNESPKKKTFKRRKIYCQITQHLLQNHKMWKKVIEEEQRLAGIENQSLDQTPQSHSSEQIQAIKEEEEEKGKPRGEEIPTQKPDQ
Chain of human PDE4B2 (Q07343 1-564 isoform Q07343-2): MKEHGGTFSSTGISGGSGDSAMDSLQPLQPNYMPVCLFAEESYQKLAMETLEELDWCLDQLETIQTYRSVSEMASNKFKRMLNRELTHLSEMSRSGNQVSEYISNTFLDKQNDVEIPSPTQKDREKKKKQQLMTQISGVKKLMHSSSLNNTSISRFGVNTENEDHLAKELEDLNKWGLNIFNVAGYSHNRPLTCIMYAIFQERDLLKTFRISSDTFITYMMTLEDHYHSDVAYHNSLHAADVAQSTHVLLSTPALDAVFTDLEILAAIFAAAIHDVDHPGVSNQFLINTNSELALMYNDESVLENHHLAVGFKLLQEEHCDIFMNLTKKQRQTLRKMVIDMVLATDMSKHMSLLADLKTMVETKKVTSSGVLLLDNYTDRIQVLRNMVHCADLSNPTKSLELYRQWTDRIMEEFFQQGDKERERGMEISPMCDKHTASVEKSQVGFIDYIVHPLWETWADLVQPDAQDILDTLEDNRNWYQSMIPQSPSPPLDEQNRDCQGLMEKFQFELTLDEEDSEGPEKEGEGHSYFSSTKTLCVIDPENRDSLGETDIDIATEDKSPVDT

Take `Nc1ccc(O)c(C(=O)O)c1` [5-ASA, 5-aminosalicylic acid, reference compound]: in the experiment on DSS-induced colitis, the “mean reduction in IL-1β in distal colon tissue compared to DSS-treated control group” value came to 33% and the “mean reduction in IL-6 in distal colon tissue compared to DSS-treated control group” value came to 86%. In experiment [1] (5-ASA group, not significantly), the “reduction of UC score” value amounted to 67%. For the same compound, the “efficacy on ulcerative colitis score (in words)” value in experiment [1] (5-ASA positive control group) was “no significant efficacy”.
With `COc1ccc(NC(=O)[C@H](CCCCN)NC(=O)c2cc(NC(=O)[C@H](CCCCN)NC(=O)c3cc(NC(=O)[C@H](CCCCN)NC(=O)c4cc(NC(=O)[C@@H](N)CCCCN)ccc4OC)ccc3OC)ccc2OC)cc1C(N)=O` [PMX-60056], the “effect on MCP-1 induction after LPS stimulation (in words)” value in experiment [2] (NR8383, 45 min pretreatment, LPS 1 μg/ml 8 h) is recorded as “strong inhibition”. The “decrease in MCP-1 levels” value in experiment [2] (at 0.5 μM, NR8383, LPS 1 μg/ml 8 h) was not below 25%. Besides, the IC50 is approximately 3 µM at human PDE4B2 and 3 µM on human PDE3A. Moreover, in experiment [3] (NR8383, 45 min pretreatment, 1 μg/ml LPS 8 h), the “effect on LPS-induced TNF-α production (in words)” value was “inhibited”. In experiment [3] (Rattus norvegicus, Macrophage, at 62.5 nM PMX-60056, NR8383, LPS 1 μg/ml 8 h), this compound came in with an inhibition at 0.0625 µM of more than 50%.
